Key:
[1] = target: Cholinesterase (Homo sapiens, UniProt P06276)
[2] = target: T1, Acetylcholinesterase (Rattus norvegicus, UniProt P37136); experiment: biochemical
T1 sequence (P37136 whole entry): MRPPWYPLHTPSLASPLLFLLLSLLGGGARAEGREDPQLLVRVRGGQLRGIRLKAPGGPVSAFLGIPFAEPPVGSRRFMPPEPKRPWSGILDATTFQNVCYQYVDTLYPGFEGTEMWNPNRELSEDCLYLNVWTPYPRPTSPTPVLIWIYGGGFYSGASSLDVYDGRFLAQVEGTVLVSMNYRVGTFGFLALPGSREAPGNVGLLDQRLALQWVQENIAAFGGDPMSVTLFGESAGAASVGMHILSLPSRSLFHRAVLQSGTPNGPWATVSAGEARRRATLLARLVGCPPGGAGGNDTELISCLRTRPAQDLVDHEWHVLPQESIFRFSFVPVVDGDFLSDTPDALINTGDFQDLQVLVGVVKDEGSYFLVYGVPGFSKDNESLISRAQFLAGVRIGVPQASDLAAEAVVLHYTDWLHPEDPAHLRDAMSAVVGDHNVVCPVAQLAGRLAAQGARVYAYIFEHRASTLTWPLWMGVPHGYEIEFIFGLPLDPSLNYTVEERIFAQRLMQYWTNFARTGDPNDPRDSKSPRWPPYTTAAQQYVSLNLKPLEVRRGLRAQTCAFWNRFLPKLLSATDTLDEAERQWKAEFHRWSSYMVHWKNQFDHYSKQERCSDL

Sequence of Cholinesterase (P06276 whole entry): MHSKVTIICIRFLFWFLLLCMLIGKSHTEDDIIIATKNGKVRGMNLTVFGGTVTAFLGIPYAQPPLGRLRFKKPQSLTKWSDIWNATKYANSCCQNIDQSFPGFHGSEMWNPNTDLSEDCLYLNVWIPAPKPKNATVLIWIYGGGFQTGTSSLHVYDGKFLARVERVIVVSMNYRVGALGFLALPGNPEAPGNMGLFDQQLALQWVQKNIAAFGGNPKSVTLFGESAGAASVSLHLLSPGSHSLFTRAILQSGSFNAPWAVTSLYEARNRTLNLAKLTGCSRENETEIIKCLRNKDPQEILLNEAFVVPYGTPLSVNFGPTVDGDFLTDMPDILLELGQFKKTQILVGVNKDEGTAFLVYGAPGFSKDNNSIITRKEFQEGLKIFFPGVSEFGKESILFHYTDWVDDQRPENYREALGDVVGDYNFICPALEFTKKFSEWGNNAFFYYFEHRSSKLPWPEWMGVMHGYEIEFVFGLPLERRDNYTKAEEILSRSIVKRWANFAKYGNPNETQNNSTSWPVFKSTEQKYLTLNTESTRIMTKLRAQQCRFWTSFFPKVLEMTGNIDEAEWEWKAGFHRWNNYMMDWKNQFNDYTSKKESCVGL

Row | Structure (SMILES) | IC50 [1] | IC50 [2]
1 | c1ccc2c(NCCCCCCCCNc3c4c(nc5ccccc35)CCCCC4)c3c(nc2c1)CCCCC3 | 3.8 nM | 
2 | Clc1ccc2c(NCCCCCCCNc3c4c(nc5cc(Cl)ccc35)CCCC4)c3c(nc2c1)CCCC3 | 26 nM | 0.07 nM
3 | c1ccc2c(NCCCCCCCNc3c4c(nc5ccccc35)CCCCC4)c3c(nc2c1)CCCCC3 | 2.6 nM | 
4 | c1ccc2c(NCCCCCCNc3c4c(nc5ccccc35)CCCCC4)c3c(nc2c1)CCCCC3 | 3.3 nM | 2.5 nM
5 | Fc1ccc2c(NCCCCCCCCNc3c4c(nc5cc(F)ccc35)CCCC4)c3c(nc2c1)CCCC3 | 164 nM | 0.7 nM
6 | c1ccc2c(NCCCCCCCNc3c4c(nc5ccccc35)CCCC4)c3c(nc2c1)CCCC3 | 54 nM | 
7 | c1ccc2c(NCCCCCCNc3c4c(nc5ccccc35)CCC4)c3c(nc2c1)CCC3 | 273 nM | 
8 | Clc1ccc2c(NCCCCCCNc3c4c(nc5cc(Cl)ccc35)CCCC4)c3c(nc2c1)CCCC3 | 312 nM | 0.6 nM
9 | c1ccc2c(NCCCCCCNc3c4c(nc5ccccc35)CCCC4)c3c(nc2c1)CCCC3 | 83 nM | 1.4 nM
10 | c1ccc2c(NCCCCCCCCNc3c4c(nc5ccccc35)CCC4)c3c(nc2c1)CCC3 | 165 nM | 
11 | Fc1ccc2c(NCCCCCCCNc3c4c(nc5cc(F)ccc35)CCCC4)c3c(nc2c1)CCCC3 | 257 nM | 0.6 nM
12 | Fc1ccc2c(NCCCCCCNc3c4c(nc5cc(F)ccc35)CCCC4)c3c(nc2c1)CCCC3 | 45 nM | 0.9 nM
13 | c1ccc2c(NCCCCCCCCNc3c4c(nc5ccccc35)CCCC4)c3c(nc2c1)CCCC3 | 53 nM | 1.6 nM
14 | c1cnc2nc3c(c(NCCCCCCNc4c5c(nc6ncccc46)CCCC5)c2c1)CCCC3 | 93 nM | 
15 | c1cnc2nc3c(c(NCCCCCCCCNc4c5c(nc6ncccc46)CCCC5)c2c1)CCCC3 | 23 nM | 
16 | c1ccc2c(NCCCCCCCNc3c4c(nc5ccccc35)CCC4)c3c(nc2c1)CCC3 | 328 nM | 75 nM
17 | c1cnc2nc3c(c(NCCCCCCCNc4c5c(nc6ncccc46)CCCC5)c2c1)CCCC3 | 59 nM | 1.3 nM

Source: ChEMBL document CHEMBL1135422 (J Med Chem, 2002)
